Measured values from ChEMBL document CHEMBL1138776, “Identification and characterization of small molecule inhibitors of the calcium-dependent S100B-p53 tumor suppressor interaction” (J Med Chem, 2004).

tested on: not listed separately; assay: Concentration required for 50% growth inhibition of primary malignant melanoma C8146A cell lines; type: functional, cell-based

Row | SMILES | IC50 [µM]
1 | N=C(N)NC(=N)Nc1cccc(Cl)c1Cl | 8
2 | Cc1cc(C)c(N2C(=O)c3ccc(C(=O)Nc4cc(C(=O)O)cc(C(=O)O)c4)cc3C2=O)c(C)c1 | 44
3 | N=C(N)NC(=N)Nc1ccc(Cl)cc1C(=O)c1ccccc1 | 12
4 | CC(C)(C)NC(=O)c1cccc(N2C(=O)c3ccc(C(=O)O)cc3C2=O)c1 | > 100
5 | O=C(O)c1cc(N/N=C/c2ccc(-c3ccc(Cl)c(C(=O)O)c3)o2)ccc1Cl | 49
6 | Cc1c(NS(=O)(=O)c2ccc(NC(=O)CCC(=O)O)cc2)c(=O)n(-c2ccccc2)n1C | > 100
7 | N=C(N)c1ccc(OCCCCCOc2ccc(C(=N)N)cc2)cc1 [PENTAMIDINE] | 1.2

target: T1, Protein S100-B (Homo sapiens, UniProt P04271); assay: Binding to holo-S100B protein
T1 sequence (P04271 whole entry): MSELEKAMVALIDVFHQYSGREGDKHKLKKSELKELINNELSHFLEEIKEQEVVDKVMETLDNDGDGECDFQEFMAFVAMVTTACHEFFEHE

Row | SMILES | Kd [µM]
8 | N=C(N)NC(=N)Nc1cccc(Cl)c1Cl | 2
9 | Cc1cc(C)c(N2C(=O)c3ccc(C(=O)Nc4cc(C(=O)O)cc(C(=O)O)c4)cc3C2=O)c(C)c1 | 120
10 | N=C(N)NC(=N)Nc1ccc(Cl)cc1C(=O)c1ccccc1 | 4.5
11 | CC(C)(C)NC(=O)c1cccc(N2C(=O)c3ccc(C(=O)O)cc3C2=O)c1 | 8.1
12 | O=C(O)c1cc(N/N=C/c2ccc(-c3ccc(Cl)c(C(=O)O)c3)o2)ccc1Cl | 18.3
13 | Cc1c(NS(=O)(=O)c2ccc(NC(=O)CCC(=O)O)cc2)c(=O)n(-c2ccccc2)n1C | 4.5
14 | N=C(N)c1ccc(OCCCCCOc2ccc(C(=N)N)cc2)cc1 [PENTAMIDINE] | 1
